From ChEMBL document CHEMBL2029199, “Pyrazole and pyrimidine phenylacylsulfonamides as dual Bcl-2/Bcl-xL antagonists” (Bioorg Med Chem Lett, 2012) come the findings set out here.

A word on the IC50: it is the concentration that inhibits the measured activity by half.

The structures appear in SMILES notation. Calls of active or inactive are those of the source. No cut-off for these calls is given here.

The target of test [1] is Apoptosis regulator Bcl-2 (Homo sapiens, UniProt P10415). The test can be described thus: Inhibition of GST-tagged Bcl2 using [FAM]-IWIAQELRRIGDEFNAYY-NH2 as substrate after 60 mins by fluorescence polarization assay.
The next test concerns the target Bcl-2-like protein 1 (Homo sapiens, UniProt Q07817). The test can be described thus: Inhibition of biotin-labelled Bcl-xL using [FAM]-IWIAQELRRIGDEFNAYY-NH2 as substrate after 60 mins by FRET analysis.
Test [2] has as its system MV4-11. The test can be described thus: Cytotoxicity against human MV411 cells after 72 hrs by firefly luciferase-based assay in presence of 2% fetal calf serum. Type of test: functional, cell-based. To be noted: MV4-11, 72 h.
Test [3] is described as follows: Cytotoxicity against human SU-DHL4 cells after 72 hrs by firefly luciferase-based assay in presence of 2% fetal calf serum. Format: functional, cell-based, SUD4. As to conditions: SU-DHL-4, 72 h.
Test [4] concerns MV4-11. The test is described as follows: Induction of cytochrome C release in mitochondria isolated from human MV411 cells at 0.1 uM after 40 mins by Western blotting analysis. Type of test: functional.
Test [5] concerns MV4-11. The test is described as follows: Induction of mitochondria depolarization in human MV411 cells at 3 uM after 7 hrs by flow cytometry. Format: functional.
Test [6] has as its system MV4-11. The test is described as follows: Induction of BAK oligomerization in mitochondria isolated from human MV411 cells at 0.1 uM after 40 mins by Western blotting analysis. Type of test: functional. On the technique in general: A western blot detects proteins with antibodies after separation by electrophoresis.
The subject of test [7] is MV4-11. The test is described as follows: Induction of BAK oligomerization in mitochondria isolated from human MV411 cells after 40 mins by Western blotting analysis. Type of test: functional.
Test [8] relates to MV4-11. The test can be described thus: Cytotoxicity against human MV411 cells after 72 hrs by firefly luciferase-based assay in presence of 10% fetal calf serum. Type of test: functional, cell-based. To be noted: MV4-11, 72 h.
The test system of test [9] is MV4-11. The test can be described thus: Induction of cytochrome C release in mitochondria isolated from human MV411 cells after 40 mins by Western blotting analysis. Format: functional.
The subject of test [10] is MV4-11. The test can be described thus: Induction of BAK oligomerization in mitochondria isolated from human MV411 cells at 1 uM after 40 mins by Western blotting analysis. Type of test: functional.

Chain of Bcl-2-like protein 1 (Q07817 whole entry): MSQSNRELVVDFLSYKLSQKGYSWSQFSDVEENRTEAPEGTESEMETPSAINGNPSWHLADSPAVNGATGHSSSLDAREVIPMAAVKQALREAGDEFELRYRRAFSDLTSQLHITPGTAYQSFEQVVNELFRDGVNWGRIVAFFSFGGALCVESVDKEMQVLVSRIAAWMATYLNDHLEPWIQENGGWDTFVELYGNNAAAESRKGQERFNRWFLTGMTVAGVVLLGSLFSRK
Chain of Apoptosis regulator Bcl-2 (P10415 whole entry): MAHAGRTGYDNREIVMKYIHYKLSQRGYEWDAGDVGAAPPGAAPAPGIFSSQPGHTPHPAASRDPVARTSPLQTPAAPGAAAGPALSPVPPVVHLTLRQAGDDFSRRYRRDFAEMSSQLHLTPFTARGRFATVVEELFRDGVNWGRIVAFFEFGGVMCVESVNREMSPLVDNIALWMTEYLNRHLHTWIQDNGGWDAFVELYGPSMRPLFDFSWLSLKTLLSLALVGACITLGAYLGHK

Regarding `CCCCc1c(-c2ccc(C(=O)NS(=O)(=O)c3ccc4ccccc4c3)cc2C(=O)N2CCc3ccccc3C2)c(C(=O)O)nn1-c1ccccc1`, the IC50 in test [1] was 170 nM; on Bcl-2-like protein 1, 30 nM.

On to `CCCCOc1ccc(-n2nc(CO)c(-c3ccc(C(=O)NS(=O)(=O)c4ccc5ccccc5c4)cc3C(=O)N3CCc4ccccc4C3)c2CCCC)cc1`, for which the IC50 in [1] turned out to be 45 nM; with MV4-11 [2], 1430 nM; in [3], 2490 nM; at Bcl-2-like protein 1, 26 nM.

As to `CCCCc1c(-c2ccc(C(=O)NS(=O)(=O)c3ccc4ccccc4c3)cc2C(=O)N2CCc3ccccc3C2)c(C(=O)OCC)nn1-c1cccc(Oc2ccccc2)c1`, the IC50 in test [1] came to 140 nM; against Bcl-2-like protein 1, 470 nM.

Consider `CCCCc1c(-c2ccc(C(=O)NS(=O)(=O)c3ccc4ccccc4c3)cc2C(=O)N2CCc3ccccc3C2)c(CO)nn1-c1ccc(Oc2cccc(Cl)c2)cc1`, for which the outcome with MV4-11 [4] and in the test with MV4-11 [6] was Active. Moreover, the IC50 in test [1] worked out at 8 nM; in the test on MV4-11 [2], 700 nM; in test [3] it was 2350 nM; at Bcl-2-like protein 1, 18 nM. This compound had an Activity with MV4-11 [5] of 25%.

For the compound `CCCCc1c(-c2ccc(C(=O)NS(=O)(=O)c3ccc4ccccc4c3)cc2C(=O)N2Cc3ccccc3C[C@H]2CN)c(CO)nn1-c1ccccc1`, the results for the IC50 (in test [1]; at Bcl-2-like protein 1) were 24 nM and 7 nM, respectively.

Regarding `CCCCc1c(-c2ccc(C(=O)NS(=O)(=O)c3ccc4cccc(Cl)c4c3)cc2C(=O)N2CCc3ccccc3C2)c(CO)nn1-c1ccc(Oc2cccc(Cl)c2)cc1`, the IC50 in test [1] worked out at 6 nM; in the test with MV4-11 [2], 580 nM; in [3], 2020 nM; against Bcl-2-like protein 1, 15 nM.

Take `CCCCN(CCCC)c1nccc(-c2ccc(C(=O)NS(=O)(=O)c3ccc4ccc(I)cc4c3)cc2C(=O)N2CCc3ccccc3C2)n1`: the IC50 was found to be 140 nM in [1] and 970 nM on Bcl-2-like protein 1.

With `CCCCN(CCCC)c1nccc(-c2ccc(C(=O)NS(=O)(=O)c3ccc4c(c3)CCN4Cc3ccc(Cl)c(Cl)c3)cc2C(=O)N2CCc3ccccc3C2)n1`, the IC50 in test [1] came to 120 nM; on Bcl-2-like protein 1, 710 nM.

Regarding `CCCCN(CCCC)c1nccc(-c2ccc(C(=O)NS(=O)(=O)c3ccc4cccc(Cl)c4c3)cc2C(=O)N2Cc3ccccc3C[C@H]2CO)n1`, the IC50 in [1] stood at 160 nM; at Bcl-2-like protein 1, 130 nM.

Take `CCCN(CCC)c1ncc(Cl)c(-c2ccc(C(=O)NS(=O)(=O)c3ccc4cccc(Cl)c4c3)cc2C(=O)N2Cc3ccccc3C[C@H]2CN)n1`: the results for the Activity result in the test on MV4-11 [7], with MV4-11 [9] and in the test on MV4-11 [5] were “Dose-dependent effect”, “Dose-dependent effect” and 25%, respectively. Moreover, the IC50 in the test with MV4-11 [8] is 730 nM; in test [1], 15 nM; in the test on MV4-11 [2], 330 nM; in test [3], 6640 nM; at Bcl-2-like protein 1 it was 14 nM.

In the case of `CCCCc1c(-c2ccc(C(=O)NS(=O)(=O)c3ccc4ccccc4c3)cc2C(=O)N2CCc3ccccc3C2)c(CO)nn1-c1ccc(Oc2ccccc2)cc1`, at Bcl-2-like protein 1, the IC50 turned out to be 35 nM.

With `CCCCc1c(-c2ccc(C(=O)NS(=O)(=O)c3ccc4ccccc4c3)cc2C(=O)N2CCc3ccccc3C2)c(C(=O)OCC)nn1-c1ccc(Oc2ccccc2)cc1`, inhibition at Bcl-2-like protein 1 was half-maximal at 55 nM (IC50).

`CCCCc1c(-c2ccc(C(=O)NS(=O)(=O)c3ccc4ccccc4c3)cc2C(=O)N2CCc3ccccc3C2)c(CO)nn1-c1ccc(Oc2ccc(Cl)cc2)cc1`: the IC50 in test [1] came to 22 nM; against Bcl-2-like protein 1 it was 35 nM.

As to `CCCCc1c(-c2ccc(C(=O)NS(=O)(=O)c3ccc4ccccc4c3)cc2C(=O)N2CCc3ccccc3C2)c(CO)nn1-c1cccc(CO)c1`, the outcome in the test on MV4-11 [4] and in the test with MV4-11 [6] was Active. Besides, the IC50 in test [1] was 71 nM; with MV4-11 [2] it was 5060 nM; in test [3] it was more than 10000 nM; against Bcl-2-like protein 1 it was 15 nM.

Take `CCCCc1c(-c2ccc(C(=O)NS(=O)(=O)c3ccc4ccccc4c3)cc2C(=O)N2CCc3ccccc3C2)c(CO)nn1-c1ccc(CCCO)cc1`: the IC50 was found to be 14 nM in test [1] and 7 nM on Bcl-2-like protein 1.

As to `CCCCc1c(-c2ccc(C(=O)NS(=O)(=O)CC)cc2C(=O)N2CCc3ccccc3C2)c(CO)nn1-c1ccc(Oc2cccc(Cl)c2)cc1`, the concentration for half-maximal inhibition (IC50) in test [1] turned out to be 190 nM; at Bcl-2-like protein 1, 140 nM.

Consider `CCOC(=O)c1nn(-c2ccccc2)c(C)c1-c1ccc(C(=O)NS(=O)(=O)c2ccc3ccccc3c2)cc1C(=O)N1CCc2ccccc2C1`, for which the IC50 in test [1] is 4190 nM; against Bcl-2-like protein 1 it was 640 nM.

Take `CCCCc1c(-c2ccc(C(=O)NS(=O)(=O)CC[Si](C)(C)C)cc2C(=O)N2CCc3ccccc3C2)c(CO)nn1-c1ccccc1`: 190 nM corresponded to half-maximal inhibition in test [1] (IC50).

In the case of `CCCCc1c(-c2ccc(C(=O)NS(=O)(=O)c3ccc4ccccc4c3)cc2C(=O)N2CCc3ccccc3C2)c(C(=O)OCC)nn1-c1ccccc1`, the IC50 stood at 660 nM in [1] and 42 nM on Bcl-2-like protein 1.

Take `CCCCN(CCCC)c1nccc(-c2ccc(C(=O)NS(=O)(=O)c3ccc4ccccc4c3)cc2C(=O)N2Cc3ccccc3C[C@H]2CN)n1`: the IC50 in [1] was 430 nM; at Bcl-2-like protein 1, 160 nM.

As to `CCCCN(CCCC)c1ncc(Cl)c(-c2ccc(C(=O)NS(=O)(=O)c3ccc4ccccc4c3)cc2C(=O)N2CCc3ccccc3C2)n1`, the IC50 in test [1] stood at 160 nM; against Bcl-2-like protein 1 it was 230 nM.

For the compound `CCCN(CCC)c1nccc(-c2ccc(C(=O)NS(=O)(=O)c3ccc4ccccc4c3)cc2C(=O)N2CCc3ccccc3C2)n1`, the IC50 in test [1] came out at 150 nM; against Bcl-2-like protein 1, 250 nM. Besides, the outcome with MV4-11 [10] was inactive.

Consider `CCCN(CCC)c1ncc(Cl)c(-c2ccc(C(=O)NS(=O)(=O)c3ccc4cccc(Cl)c4c3)cc2C(=O)N2Cc3ccccc3C[C@H]2CO)n1`, for which the Activity result was “Dose-dependent effect” in the test on MV4-11 [7], “Dose-dependent effect” in the test on MV4-11 [9] and 25% with MV4-11 [5]. Moreover, the IC50 turned out to be 9 nM in test [1], 330 nM with MV4-11 [2], 3790 nM in test [3] and 9 nM at Bcl-2-like protein 1.

Take `CCCCc1c(-c2ccc(C(=O)NS(=O)(=O)c3ccc4ccccc4c3)cc2C(=O)N2Cc3ccccc3C[C@H]2CO)c(CO)nn1-c1ccccc1`: in [1], the IC50 stood at 11 nM.

Regarding `CCCCCS(=O)(=O)NC(=O)c1ccc(-c2c(CO)nn(-c3ccc(Oc4cccc(Cl)c4)cc3)c2CCCC)c(C(=O)N2CCc3ccccc3C2)c1`, the IC50 was 65 nM in test [1] and 120 nM against Bcl-2-like protein 1.

Regarding `CCCCc1c(-c2ccc(C(=O)NS(=O)(=O)c3ccc4ccccc4c3)cc2C(=O)N2CCc3ccccc3C2)c(C(=O)OCC)nn1-c1ccc(OC)cc1`, the results for the IC50 (in test [1]; on Bcl-2-like protein 1) were 1790 nM and 48 nM, respectively.

As for `CCCCc1c(-c2ccc(C(=O)NS(=O)(=O)c3ccc4ccccc4c3)cc2C(=O)N2CCc3ccccc3C2)c(CO)nn1-c1ccc(-c2ccccc2)cc1`, the results for the IC50 (in [1]; on Bcl-2-like protein 1) were 7 nM and 13 nM, respectively.

`CCCCc1c(-c2ccc(C(=O)NS(=O)(=O)c3ccc4ccccc4c3)cc2C(=O)N2CCc3ccccc3C2)c(CO)nn1-c1ccc(CCO)cc1` had a half-inhibitory concentration (IC50) on Bcl-2-like protein 1 of 6 nM.

Turning to `CCCCN(CCCC)c1nccc(-c2ccc(C(=O)NS(=O)(=O)c3ccc4ccccc4c3)cc2C(=O)N2CCc3ccccc3C2)n1`, the IC50 came out at 700 nM in test [1] and 500 nM against Bcl-2-like protein 1.

In the case of `CCCCc1c(-c2ccc(C(=O)NS(=O)(=O)c3ccc4ccccc4c3)cc2C(=O)N2CCc3ccccc3C2)c(CO)nn1-c1ccccc1`, the IC50 in test [1] is 61 nM; at Bcl-2-like protein 1, 11 nM.

Take `CCCCN(CCCC)c1nccc(-c2ccc(C(=O)NS(=O)(=O)c3ccc4cccc(Cl)c4c3)cc2C(=O)N2CCc3ccccc3C2)n1`: the 50% inhibitory concentration (IC50) in [1] stood at 120 nM; against Bcl-2-like protein 1, 480 nM.

For `CCCCN(CCCC)c1ncc(C)c(-c2ccc(C(=O)NS(=O)(=O)c3ccc4ccccc4c3)cc2C(=O)N2CCc3ccccc3C2)n1`, the results for the IC50 (in test [1]; at Bcl-2-like protein 1) were 110 nM and 120 nM, respectively.
